Columns and labels:
intact PfDHODH = assay: Rescue from growth inhibition by transfection with ScDHODH (Dd2attB_yeastDHODH vs parental Dd2attB); format: cell-based, Plasmodium falciparum; settings: P. falciparum in blood culture; Tres Cantos, previously unpublished
Source text: Fortunately, there is a way to address this question, though the method is somewhat indirect. P. falciparum parasites engineered to express DHODH from the yeast Saccharamyces cerevisiae (ScDHODH) use fumarate as an oxidizing agent instead of ubiquinone, so their growth is not inhibited by (i.e., they are “rescued from”) inhibitors that compete with ubiquinone. Painter et al. used this technique to validate PfDHODH as an antimalarial drug target.
Unbeknownst to the Simulations Plus and U.C. Riverside groups, the Tres Cantos group had already tested several 2-aminoquinolone actives from the GSK antimalarial data set for rescue by ScDHODH transfection. […] An additional sixteen 2-amino-4-quinolones having different bridging groups were also assayed; three of these were clearly subject to rescue, whereas three yielded ambiguous results.
The Dd2 cell line containing yeast dihydroorotate dehydrogenase (DHODH) and its parental strain were cultured as described in 4.3.1 and potency of compounds determined following procedures outlined in 4.3.2. The ScURA1 gene from Saccharomyces cerevisiae was amplified from genomic DNA and cloned into the pLN-14 vector. The P. falciparum Dd2attB strain was transfected by electroporation, and stable transfectants were selected with blasticidin. Both the Dd2attB_yeastDHODH strain and its parental strain, Dd2attB, were used in these assays to determine if parasite growth inhibition was mediated by inhibition of PfDHODH following rationale previously described in Painter et al..

[1] = system: P. falciparum Dd2 (chloroquine-resistant); assay: XC50 in asynchronous blood culture, [3H]hypoxanthine incorporation, strain Dd2; format: cell-based, Plasmodium falciparum; settings: for IC50: Plasmodium falciparum, DD2, concentration required to reduce parasite growth rate by 50%, chloroquine-resistant strain, asynchronous blood culture; for Resistance ratio (±): ratio of XC50 between resistant (Dd2) and susceptible (3d7) strains
Method: (§1) Antimalarial activity in blood culture was determined as previously described at the University of California, Riverside, under conditions essentially identical to those used by GSK [19].
(§2) P. falciparum 3D7A and Dd2 strains used in this study were obtained from the Malaria Research and Reference Reagent Resource Center (MR4). Parasites were grown in human erythrocytes (obtained from a transfusion blood bank in Madrid, Spain) with Albumax II medium as previously described. RPMI 1640 medium (Gibco) was supplemented with 0.5% Albumax II (Invitrogen), 2% D-sucrose (Sigma-Aldrich), 0.3% glutamine (Sigma-Aldrich), and 150 µM hypoxanthine (Sigma-Aldrich). Cultures were maintained at 37°C at an atmosphere of 5% O2, 5% CO2, and 90% N2.
(§3) Parasite growth inhibition assays and 50% inhibitory concentration (XC50) determinations were carried out by following standard methods using the [^3H]hypoxanthine incorporation assay. Briefly, cultures with 0.5% parasitemia and 2% hematocrit were incubated with the drug as described for 48 h. After this period, parasites were harvested and the amount of incorporated radiolabeled precursor was determined. Radioactivity was added 24 h before harvesting of the parasites.

[2] = system: P. falciparum 3D7 (chloroquine-susceptible); assay: XC50 in asynchronous blood culture, [3H]hypoxanthine incorporation, strain 3D7; format: cell-based; settings: Plasmodium falciparum, concentration required to reduce parasite growth rate by 50%
Method: as §1, §2, §3

s-PfDHODH = biological target: T1, s-PfDHODH (Plasmodium falciparum, UniProt Q08210); assay: Inhibition of s-PfDHODH in vitro (Tres Cantos laboratory); settings: read-out: s-PfDHODH in vitro IC50; assayed at the Tres Cantos laboratory
T1 sequence (Q08210 158-569 limits assumed): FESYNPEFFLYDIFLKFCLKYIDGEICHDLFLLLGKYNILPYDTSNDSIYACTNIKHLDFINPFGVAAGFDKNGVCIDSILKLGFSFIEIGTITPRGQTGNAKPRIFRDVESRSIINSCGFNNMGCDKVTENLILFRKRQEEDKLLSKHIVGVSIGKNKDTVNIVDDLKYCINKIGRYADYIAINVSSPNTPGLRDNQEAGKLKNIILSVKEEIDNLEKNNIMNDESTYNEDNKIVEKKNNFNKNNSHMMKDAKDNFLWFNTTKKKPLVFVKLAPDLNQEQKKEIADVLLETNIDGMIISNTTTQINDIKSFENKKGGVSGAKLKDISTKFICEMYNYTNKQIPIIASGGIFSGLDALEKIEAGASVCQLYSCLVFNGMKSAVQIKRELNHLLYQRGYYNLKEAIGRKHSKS
Source text: The literature data set used to build our PfDHODH inhibition models was based on in vitro assays carried out using the truncated, soluble form of the enzyme introduced by Baldwin et al. [10].

[3] = biological target: truncated enzyme (PfDHODH); set-up: method as in PMID 16510978; settings: assayed under similar conditions; cited from earlier work
human enzyme (DHODH) = biological target: human enzyme (DHODH); set-up: method as in PMID 16510978; settings: cited from earlier work
[4] = biological target: full-length enzyme from P. falciparum (PfDHODH); set-up: method as in PMID 7909690; settings: after solubilization in Triton X-100; cited from earlier work
s-RrDHODH = biological target: s-RrDHODH; set-up: method as in PMID 16510978; settings: read-out: Ki, s-RrDHODH from rat; cited from earlier work

SMILES | rescue of parasites from growth inhibition by ScDHODH transfection (intact PfDHODH) | IC50 [1] [µM] | Resistance ratio (±) [1] | IC50 [2] [µM] | other results
O=c1cc(NC[C@H]2CCC[C@@H]2NC2CCCc3c2[nH]c2ccccc32)[nH]c2ccccc12 (stereo partly drawn) [CID 44533954] | not rescued |  |  |  | 
CCOc1c(CNCCCNc2cc(=O)c3ccccc3[nH]2)cc(Br)cc1OC [CID 44373601] | not rescued |  |  |  | 
Cn1cc(CNCC2(CNc3cc(=O)c4cc(Cl)ccc4[nH]3)CCCC2)n(C)c1=O [Compound 12b, 6-chloro-2-(1-((1,3-dimethyl-2-oxo-imidazol-4-yl)methylaminomethyl)cyclopentyl)methylamino-1H-quinolin-4-one] |  | 6.4 | 3.9 | 1.61 | 
O=c1cc(NCC2(CNCc3cn(Cc4ccccc4)c4ccccc34)CCCCC2)[nH]c2ccccc12 [CID 10300864] | rescued |  |  |  | 
O=C(O)C(O)C(=O)O [CID 44,537,350] |  |  |  |  | IC50 (s-PfDHODH): 860 nM
COc1ccc2[nH]c(NCC3(CNC4CCNc5ccccc54)CCCC3)cc(=O)c2c1 (stereo not drawn) [Compound 11c, 6-methoxy-2-(1-((1,2,3,4-tetrahydroquinolin-4-yl)aminomethyl)cyclopentyl)methylamino-1H-quinolin-4-one] |  | 1.78 | 4.8 | 0.37 | 
Cn1cc(CNCC2(CNc3cc(=O)c4ccccc4[nH]3)CCCC2)n(C)c1=O [Compound 12a, 2-(1-((1,3-dimethyl-2-oxo-imidazol-4-yl)methylaminomethyl)cyclopentyl)methylamino-1H-quinolin-4-one] |  | 46 | 4.6 | 10 | 
O=c1cc(NCCCNCc2sc(Br)nc2Br)[nH]c2ccccc12 [CID 44534653] | rescued |  |  |  | 
O=C1C(O)=C([C@H]2CC[C@H](c3ccc(Cl)cc3)CC2)C(=O)c2ccccc21 [Atovaquone] |  |  |  |  | Ki [3]: > 500000 nM; Ki (human enzyme (DHODH)): ~2000 nM; Ki [4]: 27000 nM; Ki (s-RrDHODH): ~80 nM

Source: article PMC7533260, “Design and tests of prospective property predictions for novel antimalarial 2-aminopropylaminoquinolones” (Journal of Computer-Aided Molecular Design, 2020)
